Measured values published in PMC11141316, “Anilino-1,4-naphthoquinones as potent mushroom tyrosinase inhibitors: in vitro and in silico studies” (Journal of Enzyme Inhibition and Medicinal Chemistry, 2024).
Like-named read-outs stand apart in the source and are kept apart here.

Key:
mushroom tyrosinase [1] = conditions: read-out: IC50 (previously reported tyrosinase inhibitor); cited from earlier work
mushroom tyrosinase [2] = experiment: Mushroom tyrosinase activity assay (L-DOPA to dopachrome); assay type: biochemical; conditions: L-DOPA substrate, 37 °C, pH 6.8, mean ± SEM, n = 3
Procedure: Enzymatic conversion of L-DOPA into dopachrome by mushroom tyrosinase (Sigma Aldrich, St. Louis, MO) was detected using spectrophotometric evaluation. The mushroom tyrosinase activity assay was performed according to a previous report. In this study, the enzyme assay was conducted at 37 °C, which is in the optimal temperature range of tyrosinase, as per previous studies[20]^,[21]. The enzyme, substrate, and inhibitor(s) were dissolved in potassium phosphate buffer at a pH of 6.8, which is in the optimal pH range of tyrosinase. Note that, the solvent for preparing the stock solution of inhibitors was dimethyl sulphoxide. […] Then, the substrate (10 μL of 50 mM of L-DOPA) was introduced to the samples, followed by incubation at 37 °C for 15 min in darkness. The absorbance was later measured at 450 nm. The experiment was conducted in triplicate. IC50 values were determined through dose–response curve analysis using GraphPad Prism 10.2.2 software (La Jolla, CA).
Data are presented as the mean ± standard error of the mean (SEM) from three independent experiments (n = 3). Statistical comparisons between two groups were conducted using the t-test, with a p value of <0.05 considered to be statistically significant.

EGFR = tested on: EGFR; parameters: method as in PMID 35664590, PMID 25019480; conditions: cited from earlier work

Row | IC50 (mushroom tyrosinase [2]) [µM] | Structure (SMILES) | IC50 (mushroom tyrosinase [1]) [µM] | also measured
1 |  | C[C@@H]1[C@H](O)[C@@H](C)/C=C/C=C/C=C/C=C/C=C/C=C/C=C/[C@H](O[C@@H]2O[C@H](C)[C@@H](O)[C@H](N)[C@@H]2O)C[C@@H]2O[C@](O)(C[C@@H](O)C[C@@H](O)[C@H](O)CC[C@@H](O)C[C@@H](O)CC(=O)O[C@H]1C)C[C@H](O)[C@H]2C(=O)O [amphotericin B] | 263 ± 11.8 | 
2 |  | O=c1c(O)c(-c2ccc(O)cc2O)oc2cc(O)cc(O)c12 [morin] | 2320 | 
3 | 151 ± 4.39 | O=C1C=C(Nc2ccccc2)C(=O)c2ccccc21 [compound 1] |  | 
4 |  | Cc1ccc(NC2=C(Cl)C(=O)c3ccccc3C2=O)cc1 [compound 3] |  | EGFR inhibitory potency relative to erlotinib (EGFR): fourfold higher potency than erlotinib
5 | 138 ± 6.07 | O=C1C(Cl)=C(Nc2ccc(Br)cc2)C(=O)c2ccccc21 [compound 5] |  | 
6 |  | CC1(C)C=Cc2c(O)ccc(C3=Cc4ccc(O)cc4OC3)c2O1 [glabrene] | 7600 | 
7 | 112 ± 9.18 | CC(=O)c1cccc(NC2=C(Cl)C(=O)c3ccccc3C2=O)c1 [compound 10] |  | 
